Values joined by “and” are separate entries in the source; they are usually repeats but may differ in a detail not shown here. Equal entries are not always repeated. “Also recorded” adds a separate entry of the source. Where two headings read alike, the source gives them in different places.
Experiments:
[1] = system: Alcaligenes viscosus (MB-12); test: Bacterial inactivation, washed bacterial cells; conditions: 4 hour incubation; assayed on B. subtilis (MB-964) plates
[2] = Blood appearance and urinary excretion; conditions: in vivo
[3] = system: Escherichia coli 236; test: Bacterial inactivation; conditions: four hours; B. subtilis (MB-964); 240 min
[4] = system: Vibrio percolans MB-1272; test: Disc-plate assay using Vibrio percolans; conditions: broth
[5] = system: gram-negative and gram-positive bacteria; test: Antibacterial activity (general statements); assay type: cell-based
[6] = system: Bacillus sp.; test: In vitro disc-plate agar diffusion, antibacterial spectrum (7 mm = no zone); assay type: cell-based; conditions: 16 h, 166 μg/ml, inoculum 5 ml/150 ml, 25° C., read-out: Inhibition Zone Diameter
[7] = system: Xanthomonas vesicatoria; test: as above; assay type: cell-based; conditions: 16 h, read-out: Inhibition Zone Diameter
[8] = system: gram-negative and gram-positive infections; test: In vivo protection against infection (general statements); design: species or system mice; conditions: for in vivo protection / activity: mouse
Excerpt: (§1) Methods: The method employed in this characterization is as follows: Female white Swiss mice, average weight 20-23 grams, were infected intraperitoneally with 3-20 times the number of organisms calculated to be lethal for 50% of the infected control animals (3-20 LD50 doses). At the time of infection and again six hours later, therapy was given by the designated route. Controls of the virulence of the culture and the toxicity of the antibiotic for uninfected mice were included in the tests. Seven days after infection the test was considered complete and the amount of the antibiotic (I) that would be required to protect 50% of the infected and treated animals was calculated by the method of Knudsen and Curtis; J. Amer. Stat. Assoc. Vol. 42: page 282 (1947).
The method employed in these studies is the same as described above with regard to the in vivo characterization of 810A.

[9] = system: Escherichia coli strains; test: microbe, parasite or virus in culture; assay type: cell-based; conditions: 16 h, read-out: Inhibition Zone Diameter, 166 μg/ml, Pleocidin-resistant, 37° C.
[10] = system: Diplococcus pneumoniae 2400; test: In vivo mouse protection test; design: species or system white Swiss mice; conditions: s.c. × two doses
Excerpt: as §1
(§2) The method employed in these studies is the same as described above with regard to the in vivo characterization of 810A. The results of these tests are described below in Table XIb:
(§3) Administration was by subcutaneous injection. At the completion of the test period, usually seven days after administration, the amount of product required to protect 50% of the mice (ED50) from this otherwise fatal injection was calculated: […]

[11] = system: Proteus morganii 3202; test: In vivo mouse protection test; design: species or system white Swiss mice; conditions: s.c. × two doses
Excerpt: as §1, §2, §3

[12] = system: Proteus vulgaris; test: In vivo mouse protection test; design: species or system white Swiss mice; conditions: s.c. × two doses
Excerpt: as §1, §2, §3

[13] = system: Pasteurella multocida; test: In vivo mouse protection test; design: species or system white Swiss mice; conditions: s.c. × two doses
Excerpt: as §1, §2, §3

[14] = system: Klebsiella pneumoniae B; test: In vivo mouse protection test; design: species or system white Swiss mice; conditions: s.c. × two doses
Excerpt: as §1, §2, §3

[15] = system: Escherichia coli; test: In vivo mouse protection test; design: species or system white Swiss mice; conditions: s.c. × two doses
Excerpt: as §1, §2, §3

[16] = system: Proteus mirabilis; test: In vivo mouse protection test; design: species or system white Swiss mice; conditions: s.c. × two doses
Excerpt: as §1, §2, §3

[17] = system: Salmonella schottmuelleri; test: In vivo mouse protection test; design: species or system white Swiss mice; conditions: s.c. × two doses
Excerpt: as §1, §2, §3

[18] = system: Aerobacter aerogenes; test: In vivo mouse protection test; design: species or system white Swiss mice; conditions: s.c. × two doses
Excerpt: as §1, §2, §3

[19] = system: Paracolobactrum arizonae; test: In vivo mouse protection test; design: species or system white Swiss mice; conditions: s.c. × two doses
Excerpt: as §1, §2, §3

[20] = system: Klebsiella pneumoniae AD; test: In vivo mouse protection test; design: species or system white Swiss mice; conditions: s.c. × two doses
Excerpt: as §1, §2, §3

[21] = system: Salmonella typhosa; test: In vivo mouse protection test; design: species or system white Swiss mice; conditions: s.c. × two doses
Excerpt: as §1, §2, §3

[22] = system: Proteus morganii 251; conditions: washed bacterial cells, 4 h, pH 7.5
[23] = system: Salmonella gallinarum; test: In vitro disc-plate agar diffusion, antibacterial spectrum (7 mm = no zone); assay type: cell-based; conditions: Salmonella enterica, 16 h, 166 μg/ml, inoculum 10 ml/150 ml, 25° C., read-out: Inhibition Zone Diameter
[24] = system: degradative bacteria / enzymatic degradation; test: Resistance to enzymatic degradation / bacterial inactivation (general statements); assay type: biochemical
Excerpt: Bacterial Inactivation with 810A: An in vitro study was designed to determine the resistance of Antibiotic 810A, to bacterial inactivation as compared with cephalosporin C, cephaloridine and cephalothin.

[25] = system: Bacillus subtilis; test: In vitro disc-plate agar diffusion, antibacterial spectrum (7 mm = no zone); assay type: cell-based; conditions: 16 h, read-out: Inhibition Zone Diameter
[26] = system: cephalosporinases; test: Resistance to cephalosporinases; assay type: biochemical
[27] = Isoelectric point and pH stability; assay type: physicochemical
[28] = system: Proteus morganii 356; conditions: washed bacterial cells, 4 h, pH 7.5
[29] = system: Proteus mirabilis 241; conditions: washed bacterial cells, 4 h, pH 7.5
[30] = system: Proteus morganii 356; test: In vivo mouse protection test, cephalosporin-resistant clinical isolate; design: species or system white Swiss mice; conditions: s.c. × 2 doses
Excerpt: as §1
In addition to the aforementioned in vivo trials of the product, a clinical isolate of Proteus morganii 356 which is resistant to cephalosporins and capable of degrading cephalosporin C, was employed in a mouse protection test performed in the same manner as reported above.

[31] = system: Vibrio percolans; test: In vitro disc-plate agar diffusion, antibacterial spectrum (7 mm = no zone); assay type: cell-based; conditions: Comamonas terrigena, 16 h; 166 μg/ml; inoculum 10 ml/150 ml; 27° C.; read-out: Inhibition Zone Diameter

## CO[C@@]1(NC(=O)CCC[C@@H](N)C(=O)O)C(=O)N2C(C(=O)O)=C(COC(N)=O)CS[C@@H]21 [Example 842A]
[1]
  percent inactivation: 54.4%
[2]
  appearance in the blood: appears rapidly in the blood
[3]
  percent inactivation: 38%
[4]; 1:10 dilution, Example 10
  inhibition zone: 21.5 mm.
[4]; 4 days, 0.5 inch discs, Example 9
  inhibition zone: 33 mm.
[4]; four days, 0.5 inch discs, Example 8
  inhibition zone: 31.5 mm.
[5]
  antibacterial activity: exhibits activity against Salmonella schottmuelleri 3010, S. gallinarum and S. typhosa; also recorded: inhibits the growth of the following gram-negative bacteria: Escherichia coli, Proteus vulgaris, Alcaligenes faecalis, Brucella bronchiseptica, Salmonella gallinarum, Vibrio percolans and Xanthomonas vesicatoria; also recorded: inhibits the growth of the following gram-positive bacteria: Staphylococcus aureus, Sarcina lutea and Bacillus subtilis
[5]; listed as Antibiotic 842A
  antibacterial activity: enhanced activity against gram-negative microorganisms
[6]
  zone of inhibition at 166 µg/mL: 8 mm
[7]
  zone of inhibition at 166 µg/mL: 19 mm
[8]
  in vivo protection / activity: protects against infection with three species of Proteus, two of Salmonella, one strain of Escherichia coli, two of Klebsiella and also against Paracolobactrum arizonae, Aerobacter aerogenes, Pasteurella multocida and Diplococcus pneumoniae 2400
[8]; listed as Antibiotic 842A
  in vivo protection / activity: effectiveness in vivo on Proteus morganii and an effectiveness against the following gram-negative bacteria: Escherichia coli, Proteus vulgaris, Proteus mirabilis, Proteus morganii, Salmonella schottmuelleri, Klebsiella pneumoniae AD, Klebsiella pneumoniae B, and Paracolobactrum arizonae
[8]; oral
  oral protection against infections: protects against infections due to Paracolobactrum arizonae 3720, Proteus vulgaris 1810, and Salmonella schottmuelleri 3010
[9]
  zone of inhibition at 166 µg/mL: 18 mm
[10]
  ED50 by Subcutaneous Route × Two Doses: 566 µg
[11]
  ED50 by Subcutaneous Route × Two Doses: 276 µg
[12]
  ED50 by Subcutaneous Route × Two Doses: 51 µg
[13]
  ED50 by Subcutaneous Route × Two Doses: 57 µg
[14]
  ED50 by Subcutaneous Route × Two Doses: 125 µg
[15]
  ED50 by Subcutaneous Route × Two Doses: 200 µg
[16]
  ED50 by Subcutaneous Route × Two Doses: 276 µg
[17]
  ED50 by Subcutaneous Route × Two Doses: 103 µg
[18]
  ED50 by Subcutaneous Route × Two Doses: 49 µg
[19]
  ED50 by Subcutaneous Route × Two Doses: 125 µg
[20]
  ED50 by Subcutaneous Route × Two Doses: 125 µg
[21]
  ED50 by Subcutaneous Route × Two Doses: 33 µg and 34 µg
[22]
  percent inactivation: 80%
[23]
  zone of inhibition at 166 µg/mL: 21 mm
[24]; compared with cephalosporin C
  resistance to enzymatic degradation: more resistant to enzymatic degradation than cephalosporin C
[24]; compared with other cephalosporins
  resistance to bacterial inactivation: more stable than the latter against certain microorganisms; also recorded: more resistant than cephalosporin C to inactivation by A. faecalis, A. viscosus, Escherichia coli 236, Proteus morganii 251, Proteus morganii 236 and Proteus mirabilis 241
[25]
  zone of inhibition at 166 µg/mL: 13 mm
[26]
  resistance to cephalosporinases: greater resistance to cephalosporinases
[27]
  apparent isoelectric point: ~3.5 pH
  pH stability: unstable above pH 9.0; also recorded: relatively stable at pH 1.5; also recorded: unstable above pH 7
[28]
  percent inactivation: 69%
[29]
  percent inactivation: 5%
[30]
  ED50 by Subcutaneous Route × 2 Doses (average of Two Trials): 273 µg
[31]
  zone of inhibition at 166 µg/mL: 56 mm

Reference: patent publication US4017487A, “7β-(D-5-amino-5-carboxyvaleramido )-7-methoxy-3-substituted-3-cephem-4-carboxylic acid antibiotics” (priority 1974, dated 1977)
